The text below walks through data of US20110117164A1, “Use of Additive Sites to Control Nitric Oxide Release from Nitric Oxide Donors Contained within Polymers” (priority 2004, published 2011).

Series [1] in a line: Organic phase pH of polymer films monitored with chromoionophore II (UV-Vis). The class given is physicochemical. The settings on record: PVC films with 5 wt. % donor, PBS buffer; protonated 650 nm, deprotonated 514 nm. An excerpt:
To determine, experimentally, if the pH within the film was changing with time, a lipophilic pH chromoionophore was incorporated into PVC films containing 5 wt. % of 2d, both in the presence and absence of KTpClPB. The intensity of the UV-Vis absorbances corresponding to the protonated (λmax=650 nm) and deprontonated (λmax=514 nm) peaks of the chromoionophore were monitored with time spectrophotometrically. […] This further supports the notion that as NO is being released from within the polymer phase, the unreacted diazeniumdiolate groups may require a buffering system to prevent the film from becoming too basic, which in turn may slow further diazeniumdiolate decomposition.
General Procedure for Deprotection to Form Diamine Copolymer (c). 35 mg of the copolymer (b) was dissolved in 2 mL of dichloromethane and then 200 μL of TFA (trifluoroacetic acid) was added dropwise. The solution was stirred at room temperature for about 3 hours. […] The data was recorded as a concentration of NO in PPB or PPM. The total amount of NO released (in moles) was determined by multiplying a constant (specific to each instrument, units of mol ppm^−1 s^−1) by the time interval that data was collected and the concentration. pH Experiments. […]

With `CCCCNCCCCCCN(CCCC)/[N+]([O-])=N/O` [Compound 2d, (Z)-1-{N-Butyl-N-[6-(N-butylammoniohexyl)amino]}-diazen-1-ium-1,2-diolate], where the note is “buffer, pH 7.4”, the “t1/2 ("apparent" t1/2 and t1/2)” value came to 4.95 ± 0.567 min. Besides, for the setting “first order decomposition, PBS buffer, pH 7.4, 37° C., n > 3”, the k turned out to be 0.0025 ± 0.0002 s⁻¹. In series [1], the “change of chromoionophore peaks with exposure time, films containing KTpClPB” value is “the intensity of the protonated peak remains constant”; the “change of chromoionophore peaks with exposure time, films without KTpClPB” value is “an increase in the absorbance of the deprotonated peak and a decrease in the protonated peak”.
